Data published in patent US12275731B2, “Azaindole inhibitors of wild-type and mutant forms of LRRK2” (DANA-FARBER CANCER INSTITUTE, INC., priority 2018, dated 2025).

Legend:
Assay in all cases: KinomeScan profiling
Format in all cases: binding
ALK(C1156Y) = biological target: T1, ALK(C1156Y) (Homo sapiens, UniProt Q9UM73, C1156Y); conditions: read-out: % control
T1 construct: purchased KinomeScan®
Outline: (§1)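 Single-point competition binding screen: 1 μM, DMSO, 468 kinases. Results reported as % control from RLU, normalised to DMSO and positive-control wells. Activity threshold: <35% control.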

ANKK1 = biological target: T2, ANKK1 (Homo sapiens, UniProt Q8NFD2); conditions: ANKK1, 1 μM; read-out: % control
T2 construct: purchased KinomeScan®
T2 sequence (Q8NFD2 1-765): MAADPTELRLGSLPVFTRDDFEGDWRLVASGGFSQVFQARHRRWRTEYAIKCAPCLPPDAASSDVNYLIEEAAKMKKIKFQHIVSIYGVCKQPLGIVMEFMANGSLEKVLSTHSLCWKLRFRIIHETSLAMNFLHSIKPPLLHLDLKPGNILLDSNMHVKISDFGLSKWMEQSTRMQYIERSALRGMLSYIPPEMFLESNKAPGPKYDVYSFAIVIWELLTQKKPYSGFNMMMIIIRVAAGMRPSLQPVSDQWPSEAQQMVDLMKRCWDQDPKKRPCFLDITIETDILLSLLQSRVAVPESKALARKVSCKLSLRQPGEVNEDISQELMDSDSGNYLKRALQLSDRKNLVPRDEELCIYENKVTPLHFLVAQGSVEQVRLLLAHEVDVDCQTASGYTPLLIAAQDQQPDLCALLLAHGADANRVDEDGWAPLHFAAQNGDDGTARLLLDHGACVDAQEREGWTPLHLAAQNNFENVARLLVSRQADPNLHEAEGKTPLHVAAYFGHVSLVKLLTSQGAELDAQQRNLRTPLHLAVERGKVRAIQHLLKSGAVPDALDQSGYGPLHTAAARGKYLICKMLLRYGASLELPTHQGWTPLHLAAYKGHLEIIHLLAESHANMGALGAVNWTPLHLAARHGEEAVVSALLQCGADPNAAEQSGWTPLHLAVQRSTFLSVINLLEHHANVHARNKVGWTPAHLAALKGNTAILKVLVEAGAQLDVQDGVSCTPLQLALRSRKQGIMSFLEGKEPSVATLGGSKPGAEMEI
Outline: as §1

BRAF(V600E) = biological target: T3, BRAF(V600E) (Homo sapiens, UniProt P15056, V600E); conditions: read-out: % control
T3 construct: purchased KinomeScan®
Outline: as §1

DAPK3 = DAPK3 (Homo sapiens, UniProt O43293); conditions: DAPK3, 1 μM; read-out: % control
Outline: as §1

FER = FER (Homo sapiens, UniProt P16591); conditions: read-out: % control
Outline: as §1

HIPK1 = HIPK1 (Homo sapiens, UniProt Q86Z02); conditions: HIPK1, 1 μM; read-out: % control
Outline: as §1

NEK9 = biological target: T4, NEK9 (Homo sapiens, UniProt Q8TD19); conditions: NEK9, 1 μM; read-out: % control
T4 sequence (Q8TD19 1-979): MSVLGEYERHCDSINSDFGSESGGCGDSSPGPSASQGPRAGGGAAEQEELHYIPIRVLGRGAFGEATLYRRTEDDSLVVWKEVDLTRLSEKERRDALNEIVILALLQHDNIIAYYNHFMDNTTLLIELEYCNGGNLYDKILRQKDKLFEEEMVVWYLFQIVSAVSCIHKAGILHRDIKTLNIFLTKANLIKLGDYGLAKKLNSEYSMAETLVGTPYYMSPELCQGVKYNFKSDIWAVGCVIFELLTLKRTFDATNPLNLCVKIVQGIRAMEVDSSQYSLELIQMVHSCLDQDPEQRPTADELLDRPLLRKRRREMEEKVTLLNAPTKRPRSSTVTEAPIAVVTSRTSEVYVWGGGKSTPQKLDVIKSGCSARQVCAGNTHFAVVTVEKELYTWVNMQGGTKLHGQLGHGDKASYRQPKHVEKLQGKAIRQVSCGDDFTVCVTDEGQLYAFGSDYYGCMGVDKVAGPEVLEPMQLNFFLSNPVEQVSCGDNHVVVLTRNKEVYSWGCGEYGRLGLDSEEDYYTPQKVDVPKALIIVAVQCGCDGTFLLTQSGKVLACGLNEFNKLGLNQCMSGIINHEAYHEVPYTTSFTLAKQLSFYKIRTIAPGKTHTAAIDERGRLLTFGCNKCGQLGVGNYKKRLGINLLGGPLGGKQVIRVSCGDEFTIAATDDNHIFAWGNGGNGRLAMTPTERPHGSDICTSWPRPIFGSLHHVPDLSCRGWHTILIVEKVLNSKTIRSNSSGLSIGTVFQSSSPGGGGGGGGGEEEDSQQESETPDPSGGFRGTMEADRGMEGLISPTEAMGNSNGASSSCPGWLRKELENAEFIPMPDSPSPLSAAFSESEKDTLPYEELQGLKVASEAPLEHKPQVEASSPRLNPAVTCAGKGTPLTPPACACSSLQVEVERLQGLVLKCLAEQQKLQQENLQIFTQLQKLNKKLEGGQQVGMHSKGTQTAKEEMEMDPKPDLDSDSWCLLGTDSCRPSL
Outline: as §1

PIK3CA(H1047Y) = biological target: T5, PIK3CA(H1047Y) (Homo sapiens, UniProt P42336, H1047Y); conditions: read-out: % control
T5 construct: purchased KinomeScan® (panel service)
Outline: as §1

TGFBR2 = TGFBR2 (Homo sapiens, UniProt P37173); conditions: TGFBR2, 1 μM; read-out: % control
Outline: as §1

TIE1 = TIE1 (Homo sapiens, UniProt P35590); conditions: TIE1, 1 μM; read-out: % control
Outline: as §1

T3 sequence (P15056 whole entry V600E): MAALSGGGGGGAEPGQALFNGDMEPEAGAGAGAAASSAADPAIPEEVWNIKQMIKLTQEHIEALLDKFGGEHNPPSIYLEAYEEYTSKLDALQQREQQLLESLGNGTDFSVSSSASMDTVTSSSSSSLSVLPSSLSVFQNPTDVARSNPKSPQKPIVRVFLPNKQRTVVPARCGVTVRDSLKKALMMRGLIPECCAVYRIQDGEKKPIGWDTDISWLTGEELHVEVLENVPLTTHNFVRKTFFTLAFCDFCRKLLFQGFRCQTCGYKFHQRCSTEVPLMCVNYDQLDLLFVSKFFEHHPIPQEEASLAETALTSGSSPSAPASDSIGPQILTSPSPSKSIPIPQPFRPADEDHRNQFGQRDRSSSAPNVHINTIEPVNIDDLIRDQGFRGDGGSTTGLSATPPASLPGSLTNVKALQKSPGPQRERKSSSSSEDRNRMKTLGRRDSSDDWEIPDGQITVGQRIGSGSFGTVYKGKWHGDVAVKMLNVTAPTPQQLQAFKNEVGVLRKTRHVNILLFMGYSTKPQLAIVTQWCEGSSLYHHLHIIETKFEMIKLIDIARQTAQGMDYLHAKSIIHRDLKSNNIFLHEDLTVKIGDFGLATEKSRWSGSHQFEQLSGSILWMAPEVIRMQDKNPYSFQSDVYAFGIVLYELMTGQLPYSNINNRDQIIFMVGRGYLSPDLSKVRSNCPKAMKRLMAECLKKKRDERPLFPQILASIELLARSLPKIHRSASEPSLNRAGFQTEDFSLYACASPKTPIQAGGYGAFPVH
Sequence of HIPK1 (Q86Z02 whole entry): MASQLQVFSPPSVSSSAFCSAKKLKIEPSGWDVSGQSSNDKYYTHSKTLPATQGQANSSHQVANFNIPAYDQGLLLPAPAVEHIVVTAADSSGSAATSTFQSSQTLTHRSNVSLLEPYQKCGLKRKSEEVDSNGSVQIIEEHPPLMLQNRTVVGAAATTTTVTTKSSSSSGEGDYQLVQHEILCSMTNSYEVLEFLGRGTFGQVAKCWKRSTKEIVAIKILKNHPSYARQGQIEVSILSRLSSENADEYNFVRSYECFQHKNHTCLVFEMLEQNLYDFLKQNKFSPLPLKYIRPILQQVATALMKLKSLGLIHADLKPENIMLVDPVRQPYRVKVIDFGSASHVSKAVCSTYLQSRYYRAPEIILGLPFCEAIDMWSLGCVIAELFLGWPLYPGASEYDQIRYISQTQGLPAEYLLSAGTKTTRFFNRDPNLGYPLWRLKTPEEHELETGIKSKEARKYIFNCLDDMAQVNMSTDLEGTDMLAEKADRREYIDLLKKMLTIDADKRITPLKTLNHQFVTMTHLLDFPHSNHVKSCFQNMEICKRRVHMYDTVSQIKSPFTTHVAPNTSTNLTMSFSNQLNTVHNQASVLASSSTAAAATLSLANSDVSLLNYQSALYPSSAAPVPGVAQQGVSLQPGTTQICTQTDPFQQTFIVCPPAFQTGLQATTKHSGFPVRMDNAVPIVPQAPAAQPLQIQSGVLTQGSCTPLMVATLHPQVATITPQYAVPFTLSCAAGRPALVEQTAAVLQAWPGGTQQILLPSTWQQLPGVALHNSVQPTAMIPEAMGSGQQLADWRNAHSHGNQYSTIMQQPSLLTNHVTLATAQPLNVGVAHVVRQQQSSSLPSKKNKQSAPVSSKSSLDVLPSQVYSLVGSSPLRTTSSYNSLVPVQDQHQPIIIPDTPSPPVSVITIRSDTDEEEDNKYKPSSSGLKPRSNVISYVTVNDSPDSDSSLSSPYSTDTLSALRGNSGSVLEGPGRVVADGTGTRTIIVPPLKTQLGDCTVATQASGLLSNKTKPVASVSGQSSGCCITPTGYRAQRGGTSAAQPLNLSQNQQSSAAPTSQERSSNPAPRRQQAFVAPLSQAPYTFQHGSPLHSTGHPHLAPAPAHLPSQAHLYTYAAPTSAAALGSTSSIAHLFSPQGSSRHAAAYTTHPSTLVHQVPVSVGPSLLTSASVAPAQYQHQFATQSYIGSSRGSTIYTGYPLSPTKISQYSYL
T1 sequence (Q9UM73 19-1620 C1156Y): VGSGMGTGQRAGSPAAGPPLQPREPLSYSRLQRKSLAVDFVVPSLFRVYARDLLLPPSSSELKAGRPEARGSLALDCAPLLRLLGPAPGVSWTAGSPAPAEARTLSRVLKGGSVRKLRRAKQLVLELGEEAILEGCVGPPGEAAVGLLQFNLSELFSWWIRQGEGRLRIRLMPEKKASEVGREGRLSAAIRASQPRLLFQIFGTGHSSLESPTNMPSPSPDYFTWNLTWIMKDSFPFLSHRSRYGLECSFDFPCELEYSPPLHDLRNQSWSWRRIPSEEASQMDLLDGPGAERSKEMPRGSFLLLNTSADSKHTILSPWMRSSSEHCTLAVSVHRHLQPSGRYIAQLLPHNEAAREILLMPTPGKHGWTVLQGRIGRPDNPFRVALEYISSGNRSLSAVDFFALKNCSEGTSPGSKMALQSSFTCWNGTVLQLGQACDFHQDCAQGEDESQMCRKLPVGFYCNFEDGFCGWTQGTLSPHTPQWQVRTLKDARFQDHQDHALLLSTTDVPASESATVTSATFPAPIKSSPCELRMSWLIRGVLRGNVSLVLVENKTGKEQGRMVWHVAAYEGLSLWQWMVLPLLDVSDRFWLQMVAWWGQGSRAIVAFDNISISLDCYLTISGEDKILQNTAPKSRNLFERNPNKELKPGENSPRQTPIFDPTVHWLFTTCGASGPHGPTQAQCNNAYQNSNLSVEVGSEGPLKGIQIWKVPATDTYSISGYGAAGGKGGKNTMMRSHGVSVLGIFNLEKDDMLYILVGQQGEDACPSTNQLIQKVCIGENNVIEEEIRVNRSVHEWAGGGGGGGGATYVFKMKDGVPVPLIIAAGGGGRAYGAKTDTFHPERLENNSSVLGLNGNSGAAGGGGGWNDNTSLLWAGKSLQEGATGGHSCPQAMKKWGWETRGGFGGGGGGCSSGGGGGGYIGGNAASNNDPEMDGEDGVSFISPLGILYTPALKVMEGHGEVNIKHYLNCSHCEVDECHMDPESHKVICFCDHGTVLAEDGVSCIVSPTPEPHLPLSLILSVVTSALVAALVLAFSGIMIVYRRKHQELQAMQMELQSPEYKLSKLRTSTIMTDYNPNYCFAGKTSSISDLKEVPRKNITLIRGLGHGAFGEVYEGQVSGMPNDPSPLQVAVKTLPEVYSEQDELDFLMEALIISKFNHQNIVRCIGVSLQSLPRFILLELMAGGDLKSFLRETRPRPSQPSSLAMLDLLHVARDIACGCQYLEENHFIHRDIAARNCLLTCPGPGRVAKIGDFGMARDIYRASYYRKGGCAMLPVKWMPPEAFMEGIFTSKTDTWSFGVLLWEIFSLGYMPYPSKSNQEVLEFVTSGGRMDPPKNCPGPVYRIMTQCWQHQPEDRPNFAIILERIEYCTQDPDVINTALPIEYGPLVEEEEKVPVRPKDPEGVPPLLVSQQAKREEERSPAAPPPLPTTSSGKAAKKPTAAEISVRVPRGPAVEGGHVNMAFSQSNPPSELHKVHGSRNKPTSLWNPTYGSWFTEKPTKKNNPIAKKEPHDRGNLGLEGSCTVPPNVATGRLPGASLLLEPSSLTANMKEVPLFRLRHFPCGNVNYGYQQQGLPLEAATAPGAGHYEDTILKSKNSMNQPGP
T5 sequence (P42336 whole entry H1047Y): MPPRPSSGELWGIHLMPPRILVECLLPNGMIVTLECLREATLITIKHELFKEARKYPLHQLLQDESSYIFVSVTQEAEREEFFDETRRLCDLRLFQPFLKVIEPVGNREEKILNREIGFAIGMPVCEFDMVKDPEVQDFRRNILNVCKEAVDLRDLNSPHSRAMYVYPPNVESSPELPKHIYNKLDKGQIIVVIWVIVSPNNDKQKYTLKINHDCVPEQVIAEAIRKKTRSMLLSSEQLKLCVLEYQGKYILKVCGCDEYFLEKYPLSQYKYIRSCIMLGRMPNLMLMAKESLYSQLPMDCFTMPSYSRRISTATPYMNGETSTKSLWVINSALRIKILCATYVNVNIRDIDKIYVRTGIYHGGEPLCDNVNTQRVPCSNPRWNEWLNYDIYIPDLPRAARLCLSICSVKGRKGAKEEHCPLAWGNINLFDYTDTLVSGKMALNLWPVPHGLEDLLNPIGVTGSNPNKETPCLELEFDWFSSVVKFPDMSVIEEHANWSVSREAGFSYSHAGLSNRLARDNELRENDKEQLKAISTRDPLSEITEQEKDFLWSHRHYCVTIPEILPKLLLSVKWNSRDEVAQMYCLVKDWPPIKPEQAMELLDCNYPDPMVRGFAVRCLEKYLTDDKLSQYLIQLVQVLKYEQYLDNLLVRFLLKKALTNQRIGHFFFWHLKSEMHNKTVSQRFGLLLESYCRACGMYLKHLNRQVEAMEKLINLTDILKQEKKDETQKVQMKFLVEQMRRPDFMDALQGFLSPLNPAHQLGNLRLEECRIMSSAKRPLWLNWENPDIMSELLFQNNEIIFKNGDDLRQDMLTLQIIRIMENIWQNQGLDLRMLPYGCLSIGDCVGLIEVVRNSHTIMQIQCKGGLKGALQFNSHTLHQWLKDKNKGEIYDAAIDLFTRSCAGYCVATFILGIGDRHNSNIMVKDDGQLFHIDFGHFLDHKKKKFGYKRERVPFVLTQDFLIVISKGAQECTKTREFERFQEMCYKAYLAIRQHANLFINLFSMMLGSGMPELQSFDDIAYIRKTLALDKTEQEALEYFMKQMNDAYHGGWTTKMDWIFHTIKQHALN
Sequence of DAPK3 (O43293 whole entry): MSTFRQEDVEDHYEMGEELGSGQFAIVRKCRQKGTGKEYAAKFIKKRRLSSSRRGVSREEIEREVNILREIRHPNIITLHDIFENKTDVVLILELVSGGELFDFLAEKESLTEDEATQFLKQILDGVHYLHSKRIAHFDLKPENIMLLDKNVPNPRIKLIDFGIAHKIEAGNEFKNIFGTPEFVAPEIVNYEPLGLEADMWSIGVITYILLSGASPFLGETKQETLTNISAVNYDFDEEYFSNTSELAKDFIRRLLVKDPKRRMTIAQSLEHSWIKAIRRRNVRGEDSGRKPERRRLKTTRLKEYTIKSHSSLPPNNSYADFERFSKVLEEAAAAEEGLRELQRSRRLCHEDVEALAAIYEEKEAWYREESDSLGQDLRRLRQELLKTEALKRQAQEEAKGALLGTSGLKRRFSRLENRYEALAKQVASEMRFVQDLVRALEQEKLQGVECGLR

Row | SMILES | remaining binding at 1 µM (ALK(C1156Y)) [%] | remaining binding at 1 µM (ANKK1) [%] | remaining binding at 1 µM (BRAF(V600E)) [%] | remaining binding at 1 µM (DAPK3) [%] | remaining binding at 1 µM (FER) [%] | remaining binding at 1 µM (HIPK1) [%] | remaining binding at 1 µM (NEK9) [%] | remaining binding at 1 µM (PIK3CA(H1047Y)) [%] | remaining binding at 1 µM (TGFBR2) [%] | remaining binding at 1 µM (TIE1) [%]
1 | CNc1c(-c2cnn([C@H]3CCN(C(C)=O)C[C@@H]3F)c2)cnc2[nH]cc(Cl)c12 [Compound 77, 1-((3S,4S)-4-(4-(3-chloro-4-(methylamino)-1H-pyrrolo[2,3-b]pyridin-5-yl)-1H-pyrazol-1-yl)-3-fluoropiperidin-1-yl)ethan-1-one] | 47 | 73 | 98 | 79 | 100 | 70 | 100 | 70 | 100 | 97
2 | CNc1c(-c2ccc(C(=O)N3CCC(N4CCOCC4)CC3)cc2)cnc2[nH]cc(Cl)c12 [Compound 96, (4-(3-chloro-4-(methylamino)-1H-pyrrolo[2,3-b]pyridin-5-yl)phenyl)(4-morpholinopiperidin-1-yl)methanone] | 37 | 51 | 87 | 96 | 100 | 68 | 100 | 84 | 100 | 93
3 | O=C(c1ccc(-c2cnc3[nH]cc(Cl)c3c2NC2CCCC2)cc1)N1CCC(N2CCOCC2)CC1 [Compound 101, (4-(3-chloro-4-(cyclopentylamino)-1H-pyrrolo[2,3-b]pyridin-5-yl)phenyl)(4-morpholinopiperidin-1-yl)methanone] | 66 | 100 | 99 | 88 | 100 | 92 | 98 | 100 | 100 | 92
